Assay results taken from patent US20190375708A1 (VenatoRx Pharmaceuticals, Inc., priority 2018, published 2019).

What was measured:
[1] = In vitro cytotoxicity assay (MTT cell viability) in HepG2 cells; assay type: cell-based, human; details: human
How it was run: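 Viability measured by MTT conversion, absorbance at 492 nm, as percent of vehicle-treated wells. Compounds spanned 30 μM to 1.0 nM in half-log steps over a 7-day exposure of parental HepG2 cells; CC50 derived by 4-parameter curve fit.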

[2] = tested on: HBV replication in HepAD38 cells; experiment: Anti-HBV replication assay in HepAD38 cells (QPCR of extracellular HBV DNA); assay type: cell-based, HBV (genotype D, serotype ayw); details: Hepatitis B virus, 168 h, 7 days incubation, extracellular HBV DNA by QPCR, read-out: Anti-HBV EC50
How it was run: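 EC50 values reflect 50% reduction of extracellular HBV DNA, measured by QPCR after 7-day treatment of tetracycline-deprived HepAD38 cells with compound […].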

| SMILES | CC50 at 7 days [1] [nM] | EC50 [2] [nM] |
| --- | --- | --- |
| Cc1noc(C(NC(=O)C(=O)c2cc(C(=O)Nc3ccc(F)c(C)c3)c3n2CCCC3)C(C)C)n1 (stereo not drawn) [Example 394, N-(4-fluoro-3-methylphenyl)-3-(2-((2-methyl-1-(3-methyl-1,2,4-oxadiazol-5-yl)propyl)amino)-2-oxoacetyl)-5,6,7,8-tetrahydroindolizine-1-carboxamide] | > 30000 | 50 to 499 |
| Cc1cc(NC(=O)c2cc(C(=O)C(=O)N[C@H](C)C(C)(F)F)n3c2CCCC3)ccc1F [Example 428, (R)-3-(2-((3,3-difluorobutan-2-yl)amino)-2-oxoacetyl)-N-(4-fluoro-3-methylphenyl)-5,6,7,8-tetrahydroindolizine--1 carboxamide] | > 30000 | 50 to 499 |
| CO[C@H]1CC[C@@H](NC(=O)C(=O)c2c(C)c(C(=O)Nc3ccc(F)c(C)c3)c(C)n2C)CC1 [Example 268, N-(4-fluoro-3-methylphenyl)-5-(2-(((1s,4s)-4-methoxycyclohexyl)amino)-2-oxoacetyl)-1,2,4-trimethyl-1H-pyrrole-3-carboxamide] | 5000 to 30000 | < 50 |
| Cc1cc(NC(=O)c2c(C)c(C(=O)C(=O)NCC(C)(C)CO)n(C)c2C)ccc1F [Example 65, N-(4-fluoro-3-methylphenyl)-5-(2-((3-hydroxy-2,2-dimethylpropyl)amino)-2-oxoacetyl)-1,2,4-trimethyl-1H-pyrrole-3-carboxamide] | > 30000 | < 50 |
| Cc1cc(NC(=O)c2c(C)c(C(=O)C(=O)NC3CCCCC3)n(C)c2C)ccc1F [Example 262, 5-(2-(cyclohexylamino)-2-oxoacetyl)-N-(4-fluoro-3-methylphenyl)-1,2,4-trimethyl-1H-pyrrole-3-carboxamide] | 5000 to 30000 | < 50 |
| COc1c(C(=O)Nc2ccc(F)c(F)c2)c(C)n(C)c1C(=O)C(=O)N[C@H]1CC[C@@H](O)CC1 [Example 383, N-(3,4-difluorophenyl)-5-(2-(((1s,4s)-4-hydroxycyclohexyl)amino)-2-oxoacetyl)-4-methoxy-1,2-dimethyl-1H-pyrrole-3-carboxamide] | > 30000 | 500 to 1000 |
| Cc1cc(NC(=O)c2c(C)c(C(=O)C(=O)NC3(C(=O)N[C@]4(C)C[C@H](O)C4)CCOCC3)n(C)c2C)ccc1F [Example 683, N-(4-fluoro-3-methylphenyl)-5-(2-((4-(((1s,3s)-3-hydroxy-1-methylcyclobutyl)carbamoyl)tetrahydro-2H-pyran-4-yl)amino)-2-oxoacetyl)-1,2,4-trimethyl-1H-pyrrole-3-carboxamide] | > 30000 | < 50 |
| Cc1cc(NC(=O)c2c(C)c(C(=O)C(=O)N[C@@H]3CC[C@@H](O)[C@@H]3O)n(CCF)c2C)ccc1F [Example 197] | > 30000 | 50 to 499 |
| Cc1cc(NC(=O)c2cc(C(=O)C(=O)N[C@@H](C(=O)O)C(C)(C)C)n3c2CCCC3)ccc1F [Example 422, (R)-2-(2-(1-((4-fluoro-3-methylphenyl)carbamoyl)-5,6,7,8-tetrahydroindolizin-3-yl)-2-oxoacetamido)-3,3-dimethylbutanoic acid] | > 30000 | > 1000 |
| O=C(N[C@H]1C[C@H](O)C1)C(=O)c1c(Cl)c(C(=O)Nc2ccc(F)c(F)c2)c2n1CCCC2 [Example 533, 2-chloro-N-(3,4-difluorophenyl)-3-(2-(((1r,3r)-3-hydroxycyclobutyl)amino)-2-oxoacetyl)-5,6,7,8-tetrahydroindolizine-1-carboxamide] | > 30000 | 500 to 1000 |
| CC(C)(C)NC(=O)C(=O)c1cc(C(=O)Nc2cc(F)cc(Cl)c2)c2n1CCCC2 [Example 395, 3-(2-(tert-butylamino)-2-oxoacetyl)-N-(3-chloro-5-fluorophenyl)-5,6,7,8-tetrahydroindolizine-1-carboxamide] | 500 to 4990 | > 1000 |
| Cc1cc(NC(=O)c2c(C)c(C(=O)C(=O)NC(C)(C)C(=O)OC(C)(C)C)n(C)c2C)ccc1F [Example 22, tert-butyl 2-(2-(4-((4-fluoro-3-methylphenyl)carbamoyl)-1,3,5-trimethyl-1H-pyrrol-2-yl)-2-oxoacetamido)-2-methylpropanoate] | > 30000 | < 50 |
| Cc1c(C(=O)Nc2cc(F)c(F)c(F)c2)c(C)n(C)c1C(=O)C(=O)Nc1ccc(F)cn1 [Example 319, 5-(2-((5-fluoropyridin-2-yl)amino)-2-oxoacetyl)-1,2,4-trimethyl-N-(3,4,5-trifluorophenyl)-1H-pyrrole-3-carboxamide] | 5000 to 30000 | < 50 |
| Cc1cc(NC(=O)c2c(C)c(C(=O)C(=O)Nc3cccnc3)n(C)c2C)ccc1F [Example 204, N-(4-fluoro-3-methylphenyl)-1,2,4-trimethyl-5-(2-oxo-2-(pyridin-3-ylamino)acetyl)-1H-pyrrole-3-carboxamide] | > 30000 | < 50 |
| Cc1cc(NC(=O)c2c(C)c(C(=O)C(=O)N[C@H]3CC[C@H](C(C)(C)O)CC3)n(C)c2C)ccc1F [Example 677, N-(4-fluoro-3-methylphenyl)-5-(2-(((1r,4r)-4-(2-hydroxypropan-2-yl)cyclohexyl)amino)-2-oxoacetyl)-1,2,4-trimethyl-1H-pyrrole-3-carboxamide] | > 30000 | < 50 |
| Cc1cc(NC(=O)c2c(C)c(C(=O)NC(C)(C)CN3CCOCC3)n(C)c2C)ccc1F [Example 349, N4-(4-fluoro-3-methylphenyl)-1,3,5-trimethyl-N2-(2-methyl-1-morpholinopropan-2-yl)-1H-pyrrole-2,4-dicarboxamide] | > 30000 | > 1000 |
| CC(=O)N1CCC(C)(NC(=O)C(=O)c2c(C)c(C(=O)Nc3ccc(F)c(C)c3)c(C)n2C)CC1 [Example 612, 5-(2-((1-acetyl-4-methylpiperidin-4-yl)amino)-2-oxoacetyl)-N-(4-fluoro-3-methylphenyl)-1,2,4-trimethyl-1H-pyrrole-3-carboxamide] | > 30000 | < 50 |
| O=C(N[C@H]1COC[C@@H]1O)C(=O)c1c(Cl)c(C(=O)Nc2ccc(F)c(Cl)c2)c2n1CCC2 [Example 563, 6-chloro-N-(3-chloro-4-fluorophenyl)-5-(2-(((3S,4R)-4-hydroxytetrahydrofuran-3-yl)amino)-2-oxoacetyl)-2,3-dihydro-1H-pyrrolizine-7-carboxamide] | 5000 to 30000 | < 50 |
| Cc1cc(NC(=O)c2c(C)c(C(=O)C(=O)NC3CCNC(=O)C3)n(C)c2C)ccc1F (stereo not drawn) [Example 286, N-(4-fluoro-3-methylphenyl)-1,2,4-trimethyl-5-(2-oxo-2-((2-oxopiperidin-4-yl)amino)acetyl)-1H-pyrrole-3-carboxamide] | > 30000 | < 50 |
| Cc1cc(NC(=O)c2c(C)c(C(=O)C(=O)N[C@H]3CNC(=O)C3)n(C)c2C)ccc1F [Example 611, (R)-N-(4-fluoro-3-methylphenyl)-1,2,4-trimethyl-5-(2-oxo-2-((5-oxopyrrolidin-3-yl)amino)acetyl)-1H-pyrrole-3-carboxamide] | > 30000 | < 50 |
| Cc1c(C(=O)NC2CCC(F)(F)C2)c2n(c1C(=O)C(=O)NC1(CO)CCC1)CCCC2 (stereo not drawn) [Example 744, N-(3,3-difluorocyclopentyl)-3-(2-((1-(hydroxymethyl)cyclobutyl)amino)-2-oxoacetyl)-2-methyl-5,6,7,8-tetrahdyroindolizine-1-carboxamide] | > 30000 | 50 to 499 |
